# In US12036301B2, “Deodorant and antiperspirant compositions” (The Procter & Gamble Company, priority 2017, dated 2024):
# Counter-ions that a name gives are not always drawn.
# Legend:
# [1] = tested on: two key underarm bacteria strains; test: Raw material microbial inhibition, verbal summary for both strains; assay type: cell-based, C. mucofaciens and S. epidermidis; conditions: verbal summary of Table 2, both strains
# Text: The data in Table 1 above was generated with the following test method.
# It is understood that when not specifically noted in this procedure: • a) All materials, reagents and equipment required for this procedure are of appropriate design and condition of cleanliness and/or sterility as determined by their intended use. • b) The operator has been trained in aseptic technique and has been qualified to perform the procedure and accurately interpret the results. • c) All media required for this procedure was manufactured by a reputable commercial source eg. […] Procedure: (all Procedures Performed in Anaerobic Chamber Except where Noted) 1. […] 2. […] Microbial Strains • Staphylococcus epidermidis (clinical isolate) • Corynebacterium mucofaciens (clinical isolate) 4. Test Procedure Inoculum Preparation • Prior to testing streak organisms for isolation on BHI with 1% Tween 80 plates, wrap with parafilm and place in 37° C. incubator. When isolated colonies appear remove one representative colony from each plate and place each in 5 ml of BHI with 1% Tween 80 media. Incubate at 37° C. with shaking overnight. Inoculate 20 ml BHI with 1% Tween 80 (per 96 deep well plate to be tested) with 20 ul of the overnight culture (1-1000 dilution). Master Plate Preparation • Compounds/formulations to be tested are diluted across a 96 deep well plate as shown below (for a 1% stock solution). […] 800 ul each 1% stock solution+positive control are added to wells C1 through H1. […] 400 ul is then removed from #1 well added to the #2 well and mixed. This is then continued across the plate resulting in a 50% dilution between wells across the plate (this can be easily accomplished with an automatic 8 channel Matrix pipette set to withdraw, dispense and mix).
# (§1) In row A of a 96 deep well plate pipette 180 ul of sterile BHI with 1% Tween 80 as a negative growth control. All other wells receive 180 ul of inoculum. From the master plate introduce 20 ul to the corresponding row in the test plate using an 8-channel pipette. Loaded plates are placed on a plate shaker in the 37° C. incubator and incubated overnight. The next day read the O.D. 600 on a plate reader. The MIC is the last well from the right that has no bacterial growth.
# C. mucofaciens = test: Tier 1 Anaerobic MIC Assay; assay type: cell-based, Corynebacterium mucofaciens (clinical isolate); conditions: raw material, BHI with 1% Tween 80, 37° C. overnight
# Text: (§2) 1. Tier 1 Anaerobic MIC Assay
# (§3) The data in Table 1 above was generated with the following test method. The purpose of this assay is to determine if a compound or formulation has an antimicrobial effect in vitro.
# (§4) It is understood that when not specifically noted in this procedure: • a) All materials, reagents and equipment required for this procedure are of appropriate design and condition of cleanliness and/or sterility as determined by their intended use. • b) The operator has been trained in aseptic technique and has been qualified to perform the procedure and accurately interpret the results. • c) All media required for this procedure was manufactured by a reputable commercial source eg. Difco, Merck etc. and has been stored and prepared as per manufacturer's instructions. • d) All routine laboratory controls, including but not limited to, media function and growth promotion tests, verification of sterility and use of positive and negative controls are being conducted. Procedure: (all Procedures Performed in Anaerobic Chamber Except where Noted) 1. Apparatus • Incubator at 37° C.; 20-200 ul 12 channel pipette; 5-50 ul 12 channel pipette; 1250 ul 8 channel Thermo Scientific Matrix pipette; 96 well plate shaker (located in incubator); Beckman Coulter deep well cap mat #267005; Beckman Coulter deep 96 well plates #267007; Falcon 96 well tissue culture plates #353072; Vortexer; Culture tubes/caps Disposable sterile gloves; Sterile petri dishes; Standard microbiological lab equipment (sterile pipettes, syringes, tips, loops, etc.); Glass bottles/flasks for media; Autoclave; Parafilm; Spectrophotometer. 2. Media • 0.9% or 0.85% saline solution • BHI agar supplemented with 1% Tween 80 • BHI media supplemented with 1% Tween 80 3. Microbial Strains • Staphylococcus epidermidis (clinical isolate) • Corynebacterium mucofaciens (clinical isolate) 4. Test Procedure Inoculum Preparation • Prior to testing streak organisms for isolation on BHI with 1% Tween 80 plates, wrap with parafilm and place in 37° C. incubator. When isolated colonies appear remove one representative colony from each plate and place each in 5 ml of BHI with 1% Tween 80 media. Incubate at 37° C. with shaking overnight. Inoculate 20 ml BHI with 1% Tween 80 (per 96 deep well plate to be tested) with 20 ul of the overnight culture (1-1000 dilution). Master Plate Preparation • Compounds/formulations to be tested are diluted across a 96 deep well plate as shown below (for a 1% stock solution). 800 ul of 0.85% saline is added to wells A1 and B1 (as these will be the negative and positive control respectively). 800 ul each 1% stock solution+positive control are added to wells C1 through H1. 400 ul 0.85% saline are added to all other wells. 400 ul is then removed from #1 well added to the #2 well and mixed. This is then continued across the plate resulting in a 50% dilution between wells across the plate (this can be easily accomplished with an automatic 8 channel Matrix pipette set to withdraw, dispense and mix).
# as §1
# S. epidermidis = test: Tier 1 Anaerobic MIC Assay; assay type: cell-based, Staphylococcus epidermidis (clinical isolate); conditions: raw material, BHI with 1% Tween 80, 37° C. overnight
# Text: as §2, §3, §4, §1
# [2] = intrinsic water solubility independent of pH
# [3] = iron binding affinity; NIST Standard Reference Database 46; cited from earlier work
Compound,performance against the bacteria as raw materials [1],"microbial inhibition concentration (MIC), C. mucofaciens (C. mucofaciens) [ppm]","microbial inhibition concentration (MIC), S. epidermidis (S. epidermidis) [ppm]",Log K1 [3],other results
CCOC(=O)CC(O)(CC(=O)OCC)C(=O)OCC [Triethyl citrate],performing well,,,,
CCCCCCCCC(CO)CCCCCC (stereo not shown) [Hexyl Decanol],,6062,3031,,
"O=C([O-])[O-].[Ca+2] [Ca Carbonate, calcium carbonate]",performing moderately well,>2500,>2500,,
CCCCC(CC)COCC(O)CO (stereo not shown) [Ethylhexyl glycerin],,12500,12500,,
"Cc1cc(CC(C)CC(C)(C)C)n(O)c(=O)c1.NCCO (stereo not shown) [Piroctone olamine, 1-Hydroxy-4-methyl-6-(2,4,4-trimethylpentyl)-2-pyridone monoethanolamine salt]",perform particularly well,,,,LogWSo [2]: −3.22
O=C(O)CC(O)(CC(=O)O)C(=O)O [Citric Acid],,,,11,
C=CCCCCCCCCC(=O)N[C@@H](Cc1ccccc1)C(=O)O [Sepiwhite],performing well,2000,1000,,
O=C(O)CN(CCN(CC(=O)O)CC(=O)O)CCN(CC(=O)O)CC(=O)O [Diethylenetriaminepentaacetic acid],,,,28,
[Ca+2].[Cl-].[Cl-] [CaCl],,>50000,>50000,,
CC(C)=CCCC(C)=CC=O [Citral],performing well,,,,
O=P(O)(O)CN(CCN(CP(=O)(O)O)CP(=O)(O)O)CCN(CP(=O)(O)O)CP(=O)(O)O [Diethylenetriaminepentakis(methylenephosphonic acid)],,,,23,
COC(=O)CCC(=O)OC [Dimethyl Succinate],performing well,,,,
C=CCc1ccc(O)c(OC)c1 [Eugenol],performing well,,,,
"CC(C(=O)O)N(CC(=O)O)CC(=O)O (stereo not shown) [Methylglycine diacetic acid (MGDA), Methylglycine diacetic acid]",,,,16,
CC(=O)N(O)CCCCCNC(=O)CCC(=O)N(O)CCCCCNC(=O)CCC(=O)N(O)CCCCCN [Desferrioxamine],,,,31,
[Cl-].[Na+] [NaCl],,>25000,>25000,,
